Test results reported in US12036312B2, “Non-aqueous topical compositions comprising a halogenated salicylanilide” (priority 2016, dated 2024).
≈ marks a conversion by molar mass, not a printed value. Where “and” joins values, the source holds several entries; their conditions need not be identical. Equal entries are not always repeated. Each block holds one molecule with its values, some of them ahead of it.

Key:
S. aureus [1] = test: Minimum inhibitory concentration (MIC) assay, Example 1, S. aureus strains; format: cell-based; conditions: Staphylococcus aureus, MRSA, read-out: Mic100 S. aureus
Text: The methicillin-resistant S. aureus (MRSA) 01 strain was used as the primary test microorganism as a representative bacteria commonly found in skin infections. This strain is a community-acquired MRSA clinical isolate of USA 300 type, from a skin abscess.
(§1) Twenty-one other MRSA and methicillin-sensitive S. aureus strains, and 4 Streptococcus pyogenes strains, were also included in the study (Table 2). These covered fusidic acid- and mupirocin-resistant strains, these two types of resistance being of clinical relevance.
(§2) Strains were conserved in Luria Bertani (LB) Broth (S. aureus) or Brain Heart Infusion (BHI) (S. pyogenes) supplemented with glycerol 15% (v/v) at −80° C., and reactivated by isolation on LB (S. aureus) or BHI (S. pyogenes) agar plates. Strains were cultivated in Mueller Hinton (MH) Broth-cation adjusted (S. aureus) supplemented with lysed horse blood 2.5% (v/v) (S. pyogenes). All strains were cultivated at 37° C., aerobically for S. aureus strains.
(§3) Bacterial cultures were stopped in their exponential growth phase and plates were inoculated with the approximate concentration of 10^3 cells per well. Plates were incubated at 37° C. for 18 hours (S. aureus) or 24 hours (S. pyogenes). Optical density at a wavelength of 600 nm was measured at the end of the incubation time. […] Experiments were performed at least as triplicate biological replicates with all strains.

S. pyogenes = test: Minimum inhibitory concentration (MIC) assay, Example 1, S. pyogenes strains; format: cell-based; conditions: Streptococcus pyogenes, read-out: Mic100 S. pyogenes
Description: as §1, §2, §3

[2] = tested on: MRSA 01, MRSA 15 (fusidic acid-resistant), MRSA 16 (mupirocin-resistant); test: Mutational frequency evaluation (spontaneous single-step mutations), Example 1; format: cell-based, Staphylococcus aureus; conditions: at MIC×1 (Example 1)
[3] = published literature values; cited from earlier work
S. aureus [4] = test: MIC assay according to CLSI criteria, Example 2, S. aureus strains; format: cell-based, Staphylococcus aureus; conditions: Staphylococcus aureus, read-out: MIC
Text: Chosen for its relevance regarding bacterial skin infections, the methicillin-resistant S. aureus (MRSA) 01 strain was used as the primary test microorganism. This strain is a community-acquired MRSA clinical isolate of USA 300 type, from a skin abscess.
Two-hundred-four other MRSA and methicillin-sensitive S. aureus strains, and 4 Streptococcus pyogenes strains, were also included in the study. These covered fusidic acid- and mupirocin-resistant strains, these two types of resistance being of clinical relevance.
Strains were conserved in Luria Bertani (LB) Broth (S. aureus) or Brain Heart Infusion (BHI) (S. pyogenes) supplemented with glycerol 15% (v/v) at −80° C., and reactivated by isolation on LB (S. aureus) or BHI (S. pyogenes) agar plates. Strains were cultivated in Mueller Hinton (MH) Broth-cation adjusted (S. aureus) or BHI (S. pyogenes). All strains were cultivated aerobically (microaerobically for S. pyogenes strains) at 37° C.
Bacterial cultures were stopped in their exponential growth phase and plates were inoculated with the approximate concentration of 5×10^5 cells per well. Plates were incubated at 37° C. for 18 hours (S. aureus) or 24 hours (S. pyogenes). Optical density at a wavelength of 600 nm was measured at the end of the incubation time.

SMILES: O=C(Nc1ccc(Oc2ccc(Cl)cc2)c(Cl)c1)c1cc(I)cc(I)c1O [Rafoxanide, rafoxanide]
MIC (S. aureus [1]): 0.8 µg/mL and 1.25 µM
MIC (S. pyogenes): 6.4 µg/mL and 10 µM
mutational frequency [2]: 5×10^−9

SMILES: Cc1cc(C(C#N)c2ccc(Cl)cc2)c(Cl)cc1NC(=O)c1cc(I)cc(I)c1O (stereo not drawn) [Closantel, closantel]
mutational frequency [2]: 2×10^−8

SMILES: O=C(Nc1cc(Cl)cc(Cl)c1O)c1c(O)c(Cl)cc(Cl)c1Cl [Oxyclozanide, oxyclozanide]
LD50 rats p.o [3]: 980 to 3500 mg/kg

MIC (S. aureus [4]; MRSA, strain MRSA 01): 0.25 µg/mL (≈ 0.499 µM)
MIC (S. aureus [4]; MRSA, strain MRSA 02): 0.25 µg/mL (≈ 0.499 µM)
MIC (S. aureus [4]; MRSA, strain MRSA 03): 0.25 µg/mL (≈ 0.499 µM)
MIC (S. aureus [4]; MRSA, strain MRSA 04): 0.25 µg/mL (≈ 0.499 µM)
MIC (S. aureus [4]; MRSA, strain MRSA 05): 0.125 µg/mL (≈ 0.25 µM)
MIC (S. aureus [4]; MRSA, strain MRSA 06): 0.25 µg/mL (≈ 0.499 µM)
MIC (S. aureus [4]; MRSA, strain MRSA 07): 0.25 µg/mL (≈ 0.499 µM)
MIC (S. aureus [4]; MRSA, strain MRSA 09): 0.25 µg/mL (≈ 0.499 µM)
MIC (S. aureus [4]; MRSA, strain MRSA 10): 0.25 µg/mL (≈ 0.499 µM)
MIC (S. aureus [4]; MRSA, strain MRSA 11): 0.5 µg/mL (≈ 0.999 µM)
MIC (S. aureus [4]; MRSA, strain MRSA 12): 0.125 µg/mL (≈ 0.25 µM)
MIC (S. aureus [4]; MRSA, strain MRSA 13): 0.25 µg/mL (≈ 0.499 µM)
MIC (S. aureus [4]; MRSA, strain MRSA 14): 0.125 µg/mL (≈ 0.25 µM)
MIC (S. aureus [4]; MRSA, strain MRSA 15): 0.25 µg/mL (≈ 0.499 µM)
MIC (S. aureus [4]; MRSA, strain MRSA 18): 0.125 µg/mL (≈ 0.25 µM)
MIC (S. aureus [4]; MRSA, strain MRSA 19): 0.25 µg/mL (≈ 0.499 µM)
MIC (S. aureus [4]; MRSA, strain MRSA 20): 0.25 µg/mL (≈ 0.499 µM)
MIC (S. aureus [4]; MRSA, strain MRSA 22): 0.25 µg/mL (≈ 0.499 µM)
MIC (S. aureus [4]; MRSA, strain MRSA 23): 0.25 µg/mL (≈ 0.499 µM)
MIC (S. aureus [4]; MRSA, strain MRSA 24): 0.25 µg/mL (≈ 0.499 µM)
MIC (S. aureus [4]; MRSA, strain MRSA 25): 0.25 µg/mL (≈ 0.499 µM)
MIC (S. aureus [4]; MRSA, strain MRSA 26): 0.5 µg/mL (≈ 0.999 µM)
MIC (S. aureus [4]; MRSA, strain MRSA 27): 0.25 µg/mL (≈ 0.499 µM)
MIC (S. aureus [4]; MRSA, strain MRSA 28): 0.5 µg/mL (≈ 0.999 µM)
MIC (S. aureus [4]; MRSA, strain MRSA 29): 0.25 µg/mL (≈ 0.499 µM)
MIC (S. aureus [4]; MRSA, strain MRSA 31): 0.25 µg/mL (≈ 0.499 µM)
MIC (S. aureus [4]; MRSA, strain MRSA 32): 0.25 µg/mL (≈ 0.499 µM)
MIC (S. aureus [4]; MRSA, strain MRSA 33): 0.25 µg/mL (≈ 0.499 µM)
MIC (S. aureus [4]; MRSA, strain MRSA 34): 0.25 µg/mL (≈ 0.499 µM)
MIC (S. aureus [4]; MRSA, strain MRSA 35): 0.5 µg/mL (≈ 0.999 µM)
MIC (S. aureus [4]; MRSA, strain MRSA 36): 0.25 µg/mL (≈ 0.499 µM)
MIC (S. aureus [4]; MRSA, strain MRSA 37): 0.25 µg/mL (≈ 0.499 µM)
MIC (S. aureus [4]; MRSA, strain MRSA 39): 0.25 µg/mL (≈ 0.499 µM)
MIC (S. aureus [4]; MRSA, strain MRSA 40): 0.25 µg/mL (≈ 0.499 µM)
MIC (S. aureus [4]; MRSA, strain MRSA 75): 0.5 µg/mL (≈ 0.999 µM)
MIC (S. aureus [4]; MRSA, strain MRSA 85): 0.25 µg/mL (≈ 0.499 µM)
MIC (S. aureus [4]; MRSA, strain MRSA 86): 0.25 µg/mL (≈ 0.499 µM)
MIC (S. aureus [4]; MRSA, strain MRSA 87): 0.25 µg/mL (≈ 0.499 µM)
MIC (S. aureus [4]; MRSA, strain MRSA 88): 0.25 µg/mL (≈ 0.499 µM)
MIC (S. aureus [4]; MRSA, strain MRSA 89): 0.25 µg/mL (≈ 0.499 µM)
MIC (S. aureus [4]; MRSA, strain MRSA 90): 0.25 µg/mL (≈ 0.499 µM)
MIC (S. aureus [4]; MRSA, strain MRSA 91): 0.25 µg/mL (≈ 0.499 µM)
MIC (S. aureus [4]; MRSA, strain MRSA 92): 0.25 µg/mL (≈ 0.499 µM)
MIC (S. aureus [4]; MRSA, strain MRSA 93): 0.25 µg/mL (≈ 0.499 µM)
MIC (S. aureus [4]; MRSA, strain MRSA 94): 0.25 µg/mL (≈ 0.499 µM)
MIC (S. aureus [4]; MRSA, strain MRSA 95): 0.25 µg/mL (≈ 0.499 µM)
MIC (S. aureus [4]; MRSA, strain MRSA 96): 0.125 µg/mL (≈ 0.25 µM)
MIC (S. aureus [4]; MRSA, strain MRSA 97): 0.25 µg/mL (≈ 0.499 µM)
MIC (S. aureus [4]; MRSA, strain MRSA 98): 0.5 µg/mL (≈ 0.999 µM)
MIC (S. aureus [4]; MRSA, strain MRSA 99): 0.5 µg/mL (≈ 0.999 µM)
MIC (S. aureus [4]; MRSA, strain MRSA 100): 0.5 µg/mL (≈ 0.999 µM)
MIC (S. aureus [4]; MRSA, strain MRSA 101): 0.25 µg/mL (≈ 0.499 µM)
MIC (S. aureus [4]; MRSA, strain MRSA 102): 0.25 µg/mL (≈ 0.499 µM)
MIC (S. aureus [4]; MRSA, strain MRSA 103): 0.25 µg/mL (≈ 0.499 µM)
MIC (S. aureus [4]; MRSA, strain MRSA 104): 0.25 µg/mL (≈ 0.499 µM)
MIC (S. aureus [4]; MRSA, strain MRSA 105): 0.25 µg/mL (≈ 0.499 µM)
MIC (S. aureus [4]; MRSA, strain MRSA 106): 0.25 µg/mL (≈ 0.499 µM)
MIC (S. aureus [4]; MRSA, strain MRSA 107): 0.25 µg/mL (≈ 0.499 µM)
MIC (S. aureus [4]; MRSA, strain MRSA 108): 0.25 µg/mL (≈ 0.499 µM)
MIC (S. aureus [4]; MRSA, strain MRSA 109): 0.25 µg/mL (≈ 0.499 µM)
MIC (S. aureus [4]; MRSA, strain MRSA 110): 0.125 µg/mL (≈ 0.25 µM)
MIC (S. aureus [4]; MRSA, strain MRSA 111): 0.25 µg/mL (≈ 0.499 µM)
MIC (S. aureus [4]; MRSA, strain MRSA 112): 0.25 µg/mL (≈ 0.499 µM)
MIC (S. aureus [4]; MRSA, strain MRSA 113): 0.25 µg/mL (≈ 0.499 µM)
MIC (S. aureus [4]; MSSA, strain MSSA 01): 0.125 µg/mL (≈ 0.25 µM)
MIC (S. aureus [4]; MSSA, strain MSSA 02): 0.125 µg/mL (≈ 0.25 µM)
MIC (S. aureus [4]; NEWMAN, strain Newman): 0.25 µg/mL (≈ 0.499 µM)
SMILES: C/C(=C\C(=O)OCCCCCCCCC(=O)O)C[C@@H]1OC[C@H](C[C@@H]2O[C@H]2[C@@H](C)[C@H](C)O)[C@@H](O)[C@H]1O [Mupirocin, mupirocin]
